Measured values reported in patent US20100168087A1, “BENZO[1,2,3]THIADIAZINE DERIVATES” (priority 2006, published 2010).

tested on: not given; test: not given; conditions: not given

First: CC1=NNS(=O)(=O)c2cc(Cl)ccc21 [Example 1, 7-chloro-4-methylbenzo[1,2,3]thiadiazine-1,1-dioxide]
Second: CCC1=NNS(=O)(=O)c2cc(Cl)ccc21 [Example 2, 4-Ethyl-7-chlorobenzo[1,2,3]thiadiazine-1,1-dioxide]
The melting point of the first is lower: 187 to 189 °C for the first, 196 to 198 °C for the second.

Compared with `CCC1=NNS(=O)(=O)c2c1ccc(Cl)c2Cl` [Example 4, 7,8-Dichloro-4-ethylbenzo[1,2,3]thiadiazine-1,1-dioxide], `CCC1=NN(C)S(=O)(=O)c2c1ccc(Cl)c2Cl` [Example 18, 7,8-Dichloro-4-ethyl-2-methylbenzo[1,2,3]thiadiazine-1,1-dioxide] is lower in melting point: 238 to 239 °C for the first, 119 to 120 °C for the second.

First: CC1=NNS(=O)(=O)c2c(Cl)cccc21 [Example 6, 8-chloro-4-methylbenzo[1,2,3]thiadiazine-1,1-dioxide]
Second: COc1cccc2c1S(=O)(=O)NN=C2C [Example 8, 4-Methyl-8-methoxybenzo[1,2,3]thiadiazine-1,1-dioxide]
The melting point of the first is higher: 206 to 207 °C for the first, 194 to 197 °C for the second.

First: COc1ccc2c(c1Cl)S(=O)(=O)NN=C2C [Example 7, 8-chloro-4-methyl-7-methoxybenzo[1,2,3]thiadiazine-1,1-dioxide]
Second: COc1ccc2c(c1OC)S(=O)(=O)NN=C2C [Example 9, 7,8-Dimethoxy-4-methylbenzo[1,2,3]thiadiazine-1,1-dioxide]
The melting point of the first is lower: 227 to 229 °C for the first, 238 to 240 °C for the second.

Compared with `CC1=NNS(=O)(=O)c2c1cc(C)c(Cl)c2Cl` [Example 10, 7,8-Dichloro-4,6-dimethylbenzo[1,2,3]thiadiazine-1,1-dioxide], `CC1=NN(C)S(=O)(=O)c2c1cc(C)c(Cl)c2Cl` [Example 26, 7,8-Dichloro-2,4,6-trimethylbenzo[1,2,3]thiadiazine-1,1-dioxide] is lower in melting point: 224 to 226 °C for the first, 179 to 180 °C for the second.

First: O=S1(=O)NN=Cc2ccc(Cl)c(Cl)c21 [Example 11, 7,8-Dichlorobenzo[1,2,3]thiadiazine-1,1-dioxide]
Second: CN1N=Cc2ccc(Cl)c(Cl)c2S1(=O)=O [Example 20, 7,8-Dichloro-2-methylbenzo[1,2,3]thiadiazine-1,1-dioxide]
The melting point of the first is higher: 183 to 185 °C for the first, 120 to 121 °C for the second.

Compared with `COc1ccc2c(c1)C=NNS2(=O)=O` [Example 12, 6-Methoxybenzo[1,2,3]thiadiazine-1,1-dioxide], `COc1ccc2c(c1)C=NN(C)S2(=O)=O` [Example 22, 2-Methyl-6-methoxybenzo[1,2,3]thiadiazine-1,1-dioxide] is lower in melting point: 163 to 164 °C for the first, 99 to 101 °C for the second.

Compared with `CC1=NNS(=O)(=O)c2ccccc21` [Example 13, 4-Methylbenzo[1,2,3]thiadiazine-1,1-dioxide], `COc1ccc2c(c1)S(=O)(=O)NN=C2C` [Example 14, 4-Methyl-7-methoxybenzo[1,2,3]thiadiazine-1,1-dioxide] is lower in melting point: 183 to 185 °C for the first, 174 to 176 °C for the second.

First: O=S1(=O)NN=Cc2ccc(Cl)cc21 [Example 15, 7-chlorobenzo[1,2,3]thiadiazine-1,1-dioxide]
Second: CN1N=Cc2ccc(Cl)cc2S1(=O)=O [Example 21, 7-chloro-2-methylbenzo[1,2,3]thiadiazine-1,1-dioxide]
The melting point of the first is higher: 221 to 223 °C for the first, 131 to 133 °C for the second.

First: CCC1=NN(CC)S(=O)(=O)c2c1ccc(Cl)c2Cl [Example 19, 2,4-Diethyl-7,8-dichlorobenzo[1,2,3]thiadiazine-1,1-dioxide]
Second: COc1ccc2c(c1Cl)S(=O)(=O)N(C)N=C2C [Example 25, 8-chloro-7-methoxy-2,4-dimethylbenzo[1,2,3]thiadiazine-1,1-dioxide]
The melting point of the first is lower: 79 to 82 °C for the first, 151 to 152 °C for the second.

First: CN1N=Cc2ccccc2S1(=O)=O [Example 23, 2-Methylbenzo[1,2,3]thiadiazine-1,1-dioxide]
Second: COc1ccc2c(c1Cl)S(=O)(=O)N(C)N=C2 [Example 28, 8-chloro-2-methyl-7-methoxybenzo[1,2,3]thiadiazine-1,1-dioxide]
The melting point of the first is lower: 79 to 80 °C for the first, 173 to 175 °C for the second.

In the case of `CC1=NN(C)S(=O)(=O)c2c(Cl)c(Cl)cc(C)c21` [Example 24, 7,8-Dichloro-2,4,5-trimethylbenzo[1,2,3]thiadiazine-1,1-dioxide], the melting point is reported as 166 to 168 °C.

tested on: male Sprague-Dawley rats; test: elevated maze test in the rat; assay type: in vivo; conditions: per os, 60-min pretreatment, 5-min measurement, time spent in the open arms and number of entries into the open arms
Procedure: Pharmacological activity of the compounds of the general Formula (I) has been evaluated in elevated maze test in the rat.
The tests were carried out according to the method of S. Pellow and coworkers (J. Neurosci. Methods. 1985, 14, 149-167). During the test, a wooden-floor cross elevated by 50 cm from the floor was used. The length and the width of the arms of the cross were 100 and 15 cm, respectively. Two opposite arms of the cross are fitted at the ends and both sides with black plexyglass wall of 40 cm height (closed arms).
The central section of the cross measuring 15 by 15 cm is open. The other two opposite arms of the cross are not provided with walls (open arms).
The tests were carried out in male Sprague-Dawley rats weighing 200 to 220 g. After the 60-min pretreatment time (per os treatment), the animal was placed in the center of the maze. During the 5-min measurement time, four variables were recorded: the time spent in the open arms; the time spent in the closed arms; the number of entries into the open arms; the number of entries into the closed arms.
Animals normally avoid the open and light parts of the maze, thereby spending little time therein only. The anxiolytic effect of the compounds of the general Formula (I) is indicated by the increase in the time spent (in seconds) in the open arms and/or by the increase in the number of the entries into the open compartments of the maze. The minimum effective dose (MED) was determined for each tested compounds regarding the time spent in the open arms and the number of entries into the open arms. During the test, the known anxiolytic compound 1-methyl-5-phenyl-7-chloro-1,3-dihydro-2H-1,4-benzodiazepin-2-one (INN: diazepam) of the Formula (IV)
was used. Treatment of the animals was carried out orally with the doses 0.1, 0.3, 1.0, 3.0 for diazepam and 0.01, 0.1, 1.0 mg/kg for the compounds of the general Formula (I).

With `CN1C(=O)CN=C(c2ccccc2)c2cc(Cl)ccc21` [Diazepam, 1-methyl-5-phenyl-7-chloro-1,3-dihydro-2H-1,4-benzodiazepin-2-one, reference compound] the “MED (minimum effective dose), anxiolytic effect in elevated maze test” value (shortened to “MED (minimum effective dose)”) was 1.00 mg/kg p.o.

In the case of `CC1=NNS(=O)(=O)c2c1ccc(Cl)c2Cl` [Example 3, 7,8-Dichloro-4-methylbenzo[1,2,3]tiadiazine-1,1-dioxide], the “MED (minimum effective dose)” value is reported as “≦0.01 mg/kg p.o”.
With `CC1=NNS(=O)(=O)c2c(Cl)c(Cl)cc(C)c21` [Example 5, 7,8-Dichloro-4,5-dimethylbenzo[1,2,3]thiadiazine-1,1-dioxide] the “MED (minimum effective dose)” value was “≦0.01 mg/kg p.o”.
In the case of `CN1N=Cc2ccc(Cl)c(Cl)c2S1(=O)=O` [Example 20, 7,8-Dichloro-2-methylbenzo[1,2,3]thiadiazine-1,1-dioxide], the “MED (minimum effective dose)” value is reported as “≦0.01 mg/kg p.o”.
